Test results published in article PMC10223284, “Category-Based Toxicokinetic Evaluations of Data-Poor Per- and Polyfluoroalkyl Substances (PFAS) using Gas Chromatography Coupled with Mass Spectrometry” (Toxics, 2023).
“And” between values parts separate entries of the source, which are not always exact repeats. Identical values can stand only once.

What was measured:
human plasma [1] = assay: Ultracentrifugation (UC) plasma protein binding assay, fraction unbound in plasma (fup); details: for Aqueous Fraction / Aqueous Fraction, Run-specific Avg: amount measured in aqueous fraction after ultracentrifugation, unit not given; for Aqueous Fraction: replicates A, B, C; for Aqueous Fraction, Run-specific Avg: run average; for Fup.Med: median fraction unbound in plasma; for Fup.Med / Fup.point: UC assay Level4; for Fup.point: point estimate of fraction unbound in plasma; for Fraction Unbound (fu), replicates A, B, C: single replicate of one UC run (aqueous fraction / Time 5 hr); for Mean fu: fraction unbound in human plasma, ultracentrifugation, some values based on eLOQ; for Mean Fu: mean fraction unbound over all replicates and runs, UC assay, human plasma
human plasma [2] = assay: Chemical stability in plasma over the UC assay time course (T5hr/T1hr); details: for Time 1 hr / Time 1 hr, Run-specific Avg: amount measured in plasma sample at 1 hr; for Time 1 hr / Time 5 hr: replicates A, B, C; for Time 1 hr / Time 1 hr, Run-specific Avg / Time 5 hr / Time 5 hr, Run-specific Avg: unit not given; for Time 1 hr, Run-specific Avg / Time 5 hr, Run-specific Avg: run average; for Time 5 hr / Time 5 hr, Run-specific Avg: amount measured in plasma sample at 5 hr; for Fstable.Med: median fraction stable in plasma, UC assay Level4; for PPB_Stab_Fail: flag for stability failure in the plasma protein binding assay (1 = fail, 0 = pass); for Stability (T5hr/ T1hr), replicates A, B, C: single replicate of one UC run; for % remaining_PPB: chemical remaining in plasma over the PPB assay time course, NS = no significant loss
in vitro = details: both, human, plasma
[3] = Abiotic loss in negative controls of the hepatocyte clearance assay (cell-free media, metabolically inactivated hepatocytes); type: in vitro ADME; details: flag for stability failure in hepatocyte clearance assay controls (1 or Fst = fail, 0 = pass)
Experimental: The hepatic metabolic stability assay measures the loss of a parent compound over time in a substrate-depletion approach. Briefly, hepatocyte suspensions, after a viability assessment, were diluted in complete William’s medium E (containing dexamethasone and cell maintenance cocktail B) prior to addition to 96-well polypropylene plates containing an equal volume of media spiked with the test compound (1 μM assay concentration; assay cell density = 50,000 cells/100 μL) and maintained at 37 °C with shaking. At each time point, relevant plates were crashed with an equal volume of ice-cold acetonitrile, centrifuged, and supernatant transferred to a new plate prior to storage at <−70 °C until quantitative analysis. Controls, run in parallel, included cell-free (i.e., media only) and metabolically inactivated hepatocytes to evaluate abiotic chemical stability in the aqueous media matrix with and without cellular protein. In preliminary runs, these controls were run at T0 and T240 only. If significant instability was noted, the hepatocyte clearance assay was rerun, including cell-free samples at each time point and metabolically inactivated hepatocytes at selected time points.
Negative controls, including media only and metabolically inactivated hepatocyte controls, were included to monitor abiotic loss (i.e., background clearance) during the assay. Where significant compound loss occurred using the analysis described above, background clearance rates were calculated and used to background-adjust hepatic metabolic clearance rates. Where chemicals were cleared prior to the end of the analysis, at 240 min (T240), the corresponding negative control timepoint was used for background subtraction. Any chemicals displaying a 50% or more abiotic loss at T120 were deemed unstable and were excluded from further analyses.

[4] = mean T5hr/T1hr ratio in plasma over all replicates/runs
[5] = average of one UC run (run date in line above)
[6] = mean T5hr/T1hr ratio over all replicates and runs, plasma

SMILES | Aqueous Fraction (human plasma [1]) | Aqueous Fraction, Run-specific Avg (human plasma [1]) | Fup.Med (human plasma [1]) | Fup.point (human plasma [1]) | Time 1 hr (human plasma [2]) | Time 1 hr, Run-specific Avg (human plasma [2]) | Time 5 hr (human plasma [2]) | Time 5 hr, Run-specific Avg (human plasma [2]) | Stability (T5hr/ T1hr), Run-specific Avg (human plasma [2]; average of one UC run) | Mean Stability (human plasma [2]; [4]) | Fstable.Med (human plasma [2]) | Hep_Stab_Fail [3] | Fraction Unbound (fu), replicates A, B, C (human plasma [1]) | Stability (T5hr/ T1hr), Run-specific Avg (human plasma [2]; [5]) | PPB_Stab_Fail (human plasma [2]) | Mean Stability (human plasma [2]; [6]) | Stability (T5hr/ T1hr), replicates A, B, C (human plasma [2]) | Mean fu (human plasma [1]) | % remaining_PPB (human plasma [2]) [%] | also measured
OCC(F)(F)C(F)(F)C(F)(F)CO [Hexafluoroamylene] | 160.563 and 273.771 and 229.145 | 221.16 | 0.627 | 0.675 | 5856.63 and 5544.86 and 5920.14 | 5773.88 | 3672.88 and 3626.61 and 3711.47 | 3649.75 | 0.632 | 0.636 | 0.988 | – | – | – | – | – | – | – | – | fraction unbound (in vitro; Fraction Unbound (fu), Run-specific Avg, average of one UC run): 0.06; fraction unbound (in vitro; Fraction Unbound (fu), individual replicates A, B, C of the UC run named in c8): 0.0437; fraction unbound (in vitro; Mean Fu, mean fraction unbound in human plasma over all UC replicates/runs): 0.06
OCCCC(F)(F)C(F)(F)C(F)(F)F [3-(Perfluoropropyl)propanol] | – | – | 0.202 | 0.205 | – | – | – | – | – | – | 0.2 | 1 | 0.224 and 0.207 | 0.890 | 0 | 0.892 | 0.858 and 0.887 and 0.929 | – | – | fraction unbound (in vitro; Fraction Unbound (fu), Run-specific Avg, average of one UC run (run date in line above)): 0.2; fraction unbound (in vitro; Fraction Unbound (fu), replicates A, B, C, single replicate of one UC run (aqueous fraction / Time 5 hr)): 0.179; fraction unbound (in vitro; Mean Fu, mean fraction unbound over all replicates and runs, UC assay, human plasma): 0.203; fraction unbound (in vitro; Mean fu, fraction unbound in human plasma, ultracentrifugation, some values based on eLOQ): 0.203
OCC(F)(F)C(F)(F)C(F)(F)C(F)(F)C(F)(F)C(F)(F)F [6:1 Fluorotelomer alcohol] | 212.981 and 210.941 and 147.734 | 190.55 | 0.0187 | 0.0386 | 10923.7 and 9182.55 and 11162.4 | 10422.90 | 5789.66 and 11336.8 and 10690.6 | 8563.21 | 0.822 | 0.907 | 0.204 | 1 | – | – | 0 | – | – | – | – | Fraction Unbound (fu), Run-specific Avg (human plasma [1]; average of one UC run): 0.0231
FC(F)(F)C(F)(F)C(F)(F)C(F)(F)CCI [1H,1H,2H,2H-Perfluorohexyl iodide] | 429.404 and 197.254 and 248.159 | 291.61 | 0.0824 | 0.0905 | 4814.29 and 5234.67 and 5102.52 | 5050.49 | 2541.5 and 2572.68 and 2719.11 | 2557.09 | 0.506 | 0.517 | 0.99 | 1 | 0.08012 and 0.1098 and 0.1042 | 0.871 | 0 | 0.928 | 1.126 and 0.894 and 0.765 | 0.0980 | – | Fraction Unbound (fu), Run-specific Avg (human plasma [1]; [5]): 0.10
OCC(F)(F)C(F)(F)C(F)(F)C(F)(F)C(F)(F)C(F)F | – | – | 0.0526 | 0.0549 | – | – | – | – | – | – | 0.222 | 1 | 0.052 and 0.046 and 0.064 | 0.870 | 0 | 0.875 | 0.819 and 1.002 and 0.803 | 0.0537 | – | Mean Fu (human plasma [1]): 0.054
C=CC(=O)OCCC(F)(F)C(F)(F)C(F)(F)C(F)(F)F [2-(Perfluorobutyl)ethyl acrylate] | – | – | 2.26E-06 | 0.078 | – | – | – | – | – | – | 0.000485 | 1 | – | – | 1 | – | – | – | 0 | –
OCC(F)(F)C(F)(F)C(F)(F)C(F)F [1H,1H,5H-Perfluoropentanol] | – | – | 0.791 | 0.355 | – | – | – | – | – | – | 1 | 1 | 0.445 and 0.315 and 0.324 | 0.858 | 0 | 0.855 | 0.775 and 0.902 and 0.887 | 0.3616 | – | Fraction Unbound (fu), Run-specific Avg (human plasma [1]; [5]): 0.36; Mean Fu (human plasma [1]): 0.362
FC(F)(F)COC(OCC(F)(F)F)OCC(F)(F)F [tris(Trifluoroethoxy)methane] | – | – | 0.132 | 0.0994 | – | – | – | – | – | – | 0.362 | 1 | 0.186 and 0.1626 and 0.1699 | 0.660 | 0 | 0.662 | 0.6799 and 0.6407 and 0.6662 | 0.1728 | 66 | Fraction Unbound (fu), Run-specific Avg (human plasma [1]; [5]): 0.17; Mean Fu (human plasma [1]): 0.173
OCCC(F)(F)C(F)(F)C(F)(F)C(F)(F)C(F)(F)C(F)(F)F [6:2 Fluorotelomer alcohol] | 219.897 and 3328.34 and 176.612 | 1241.62 | 0.232 | 0.152 | 10242.5 and 11181.9 and 10094.7 | 10506.38 | 8145.88 and 10628.7 and 9411.26 | 9387.28 | 0.893 | 0.895 | 0.205 | 1 | – | – | 0 | – | – | – | 100 | Fraction Unbound (fu), Run-specific Avg (human plasma [1]; average of one UC run): 0.0229
OCCCC(F)(F)C(F)(F)C(F)(F)C(F)(F)C(F)(F)C(F)(F)C(F)(F)F [7:3 Fluorotelomer alcohol] | – | – | – | – | – | – | – | – | – | – | – | 1 | – | – | 0 | – | – | 0.0230 | – | –
OCC(F)(F)C(F)(F)C(F)(F)C(F)(F)C(F)(F)C(F)(F)C(F)(F)C(F)(F)C(F)(F)C(F)(F)C(F)(F)F [11:1 Fluorotelomer alcohol] | 595.593 and 1494.34 and 453.605 | 847.84 | 0.0578 | 0.0621 | 16624.1 and 16003.4 and 18170.7 | 16932.71 | 8697.13 and 19831.5 and 16897.3 | 14264.32 | 0.842 | 0.909 | 0.341 | 1 | – | – | 0 | – | – | 0.0570 | 100 | Fraction Unbound (fu), Run-specific Avg (human plasma [1]; average of one UC run): 0.0569
FC(F)(F)C(F)(F)C(F)(F)C(F)(F)C(F)(F)C(F)(F)C(F)(F)CCI [1-Iodo-1H,1H,2H,2H-perfluorononane] | – | – | 0.108 | 0.112 | – | – | – | – | – | – | 0.358 | Fst | – | – | 0 | – | – | 0.1123 | 51.7 | –
C=CC(=O)OCC(F)(F)C(F)(F)C(F)(F)C(F)(F)C(F)(F)C(F)(F)C(F)(F)C(F)F [1H,1H,9H-Perfluorononyl acrylate] | – | – | 2.02E-08 | 0.315 | – | – | – | – | – | – | 0.000116 | 1 | – | – | 1 | – | – | – | 0 | –
N=C(N)C(F)(F)C(F)(F)C(F)(F)C(F)(F)C(F)(F)C(F)(F)C(F)(F)F [Perfluorooctanamidine] | – | – | 4.95E-09 | 0.0261 | – | – | – | – | – | – | 0.0291 | 1 | – | 0.890 | 0 | 0.892 | 0.858 and 0.887 and 0.929 | 0.0253 | 67 | –
